The text below walks through data of ChEMBL document CHEMBL1141117, “Unambiguous synthesis and prophylactic antimalarial activities of imidazolidinedione derivatives” (J Med Chem, 2005).

Values after ≈ are worked out from the molar mass of the structure shown.

In assay [1] the test system is Plasmodium yoelii. In words: Prophylactic activity in infected mouse at 40 mg/kg peroral administration, expressed as no of organisms survived; Total organisms= 5. The conditions noted are these: route oral.
In assay [2] the test system is Plasmodium yoelii. The assay is described as follows: Prophylactic activity in infected mouse at 2.5 mg/kg peroral administration, expressed as no of organisms survived; Total organisms= 5. The following applies: route oral.
Assay [3] relates to Plasmodium yoelii. The assay is described as follows: Prophylactic activity in infected mouse at 10 mg/kg peroral administration, expressed as no of organisms survived; Total organisms= 5. The conditions noted are these: route oral.
The subject of assay [4] is Plasmodium yoelii. In words: Prophylactic activity in infected mouse at 160 mg/kg peroral administration, expressed as no of organisms survived; Total organisms= 5. The following applies: route oral.
The subject of assay [5] is Plasmodium yoelii. The assay is described as follows: Prophylactic activity in infected mouse at 1.25 mg/kg peroral administration, expressed as no of organisms survived; Total organisms= 5. The following applies: route oral.
The subject of assay [6] is Plasmodium yoelii. In words: Prophylactic activity in infected mouse at 5 mg/kg peroral administration, expressed as no of organisms survived; Total organisms= 5. The conditions noted are these: route oral.
Assay [7] deals with Plasmodium yoelii. The assay is described as follows: Prophylactic activity in infected mouse at 80 mg/kg peroral administration, expressed as no of organisms survived; Total organisms= 5. The conditions noted are these: route oral.
Assay [8] has as its system Plasmodium yoelii. In words: Prophylactic activity in infected mouse at 20 mg/kg peroral administration, expressed as no of organisms survived; Total organisms= 5. The following applies: route oral.
The test system of assay [9] is Plasmodium yoelii. The assay is described as follows: Prophylactic activity in infected mouse at 160 mg/kg peroral administration, expressed as no of organisms survived; Not dosed.
Assay [10] relates to Plasmodium falciparum. The assay is described as follows: (§1) In vitro antimalarial activity for Plasmodium falciparum TM91C235. It counts as functional.
The test system of assay [11] is Plasmodium falciparum. In words: (§2) In vitro antimalarial activity for Plasmodium falciparum D6. It counts as functional.
In assay [12] the test system is Plasmodium falciparum. In words: (§3) In vitro antimalarial activity for Plasmodium falciparum W2. It counts as functional.
For assay [13], the system named is Plasmodium falciparum. Described as §2. It counts as functional, organism-based.
For assay [14], the system named is Plasmodium yoelii. In words: In vitro antimalarial activity dosed at 1 mg/kg against exoerythrocytic Plasmodium yoelii in mice (Mus musculus) hepatocytes. The conditions noted are these: Hepatocyte.
In assay [15] the test system is Plasmodium falciparum. The assay is described as §1. The assay is classed as functional, organism-based.
Assay [16] concerns Plasmodium falciparum. Described as §3. The assay is classed as functional, organism-based.
Assay [17] deals with Plasmodium yoelii. In words: In vitro antimalarial activity dosed at 10 mg/kg against exoerythrocytic Plasmodium yoelii in mice (Mus musculus) hepatocytes. The following applies: Hepatocyte.
In assay [18] the test system is Plasmodium yoelii. In words: Prophylactic activity in infected mouse at 1.23 mg/kg peroral administration, expressed as no of organisms survived; Total organisms= 5. The following applies: route oral.
The subject of assay [19] is Plasmodium yoelii. The assay is described as follows: Prophylactic activity in infected mouse at 160 mg/kg peroral administration, expressed as no of organisms survived; Toxicity death.

On to `Cc1oc(=O)oc1COC(=O)/N=C(\NC1=NC(=O)C(=O)N1C(C)C)Nc1ccc(Cl)c(Cl)c1`, for which the Activity is reported as 2 in the assay with Plasmodium yoelii [1], 0 in the assay with Plasmodium yoelii [2], 2 in the assay on Plasmodium yoelii [3] and 3 with Plasmodium yoelii [4].

Consider `CC(C)/N=C(/NC(=O)OC(C)(C)C)NC1=NC(=O)C(=O)N1c1ccc(Cl)c(Cl)c1`, for which the Activity in the assay on Plasmodium yoelii [5] was found to be 2; in the assay with Plasmodium yoelii [1] it was 4; with Plasmodium yoelii [2], 2; in the assay on Plasmodium yoelii [4], 5; with Plasmodium yoelii [6] it was 4.

As for `CCCCCCOC(=O)N/C(=N/C(C)C)NC1=NC(=O)C(=O)N1c1ccc(Cl)c(Cl)c1`, the Activity is 3 in the assay on Plasmodium yoelii [1]; 2 in the assay with Plasmodium yoelii [3]; 5 in the assay with Plasmodium yoelii [7]; 2 in the assay on Plasmodium yoelii [6]; 4 in the assay with Plasmodium yoelii [8].

Consider `C=CCCOC(=O)N/C(=N/C(C)C)NC1=NC(=O)C(=O)N1c1ccc(Cl)c(Cl)c1`, for which the Activity entry with Plasmodium yoelii [9] was “Not Dosed”.

The term IC90 denotes the concentration at which the effect reaches the 90% level. Low values mean an effect from little substance, high ones a need for much substance. Consider `CCN(CC)CCCC(C)Nc1ccnc2cc(Cl)ccc12` (centres undefined) [CHLOROQUINE], for which the IC90 amounted to 0.0552 µg/mL (≈ 0.173 µM) with Plasmodium falciparum [10], 0.00533 µg/mL (≈ 0.0167 µM) with Plasmodium falciparum [11] and 0.199 µg/mL (≈ 0.621 µM) with Plasmodium falciparum [12].

Regarding `CCO[C@H]1O[C@@H]2O[C@@]3(C)CC[C@H]4[C@H](C)CC[C@@H]([C@H]1C)[C@@]24OO3` [ARTEMOTIL], the Activity in the assay with Plasmodium yoelii [1], in the assay with Plasmodium yoelii [3] and in the assay on Plasmodium yoelii [4] was 0 each time.

Consider `COc1cc(NC(C)CCCN)c2ncccc2c1` (centres undefined) [PRIMAQUINE], for which the results for the Activity in the assay on Plasmodium yoelii [1], in the assay with Plasmodium yoelii [3] and with Plasmodium yoelii [4] were 2, 0 and 5, respectively.

The IC50 is the concentration that gives 50% inhibition. Higher therefore signals a need for much substance. Usually inhibition in vivo stands for the percentage by which the read-out fell short of the control. A low value points to a response near the control. Consider `CC(C)N1C(=O)C(=O)N=C1NC(=N)Nc1ccc(Cl)c(Cl)c1`, for which the IC50 in the assay on Plasmodium falciparum [13] was 2.97 µg/mL (≈ 8.68 µM); in the assay on Plasmodium falciparum [15], 2.59 µg/mL (≈ 7.57 µM); in the assay with Plasmodium falciparum [16], 2.66 µg/mL (≈ 7.79 µM). For the same molecule, the figures for the IC90 with Plasmodium falciparum [10], in the assay on Plasmodium falciparum [11] and with Plasmodium falciparum [12] were 11.3 µg/mL (≈ 33.2 µM), 12.1 µg/mL (≈ 35.3 µM) and 10.9 µg/mL (≈ 31.8 µM), respectively. Also, the inhibition in vivo at 1 mg/kg in the assay on Plasmodium yoelii [14] worked out at 50%. The molecule also gave an inhibition in vivo at 10 mg/kg in the assay with Plasmodium yoelii [17] of 91%.

Turning to `CCCCCCOC(=O)/N=C(\NC1=NC(=O)C(=O)N1C(C)C)Nc1ccc(Cl)c(Cl)c1`, the Activity was found to be 2 in the assay with Plasmodium yoelii [1], 0 in the assay on Plasmodium yoelii [3] and 1 in the assay on Plasmodium yoelii [4].

For `CCOC(=O)N/C(=N/C(C)C)NC1=NC(=O)C(=O)N1c1ccc(Cl)c(Cl)c1`, the Activity amounted to 5 in the assay on Plasmodium yoelii [1]; 1 with Plasmodium yoelii [3]; 5 with Plasmodium yoelii [7]; 1 with Plasmodium yoelii [6]; 3 in the assay with Plasmodium yoelii [8]. Also, the inhibition in vivo at 1 mg/kg with Plasmodium yoelii [14] was determined as 10%. Further, 10 mg/kg produced 98% inhibition in vivo in the assay on Plasmodium yoelii [17].

As for `CC(C)N1C(=O)C(=O)N=C1N/C(=N\C(=O)OCCOCc1ccccc1)Nc1ccc(Cl)c(Cl)c1`, the Activity turned out to be 0 in the assay on Plasmodium yoelii [1], 0 with Plasmodium yoelii [3] and 1 in the assay with Plasmodium yoelii [4].

As for `CC(C)COC(=O)N/C(=N/C(C)C)NC1=NC(=O)C(=O)N1c1ccc(Cl)c(Cl)c1`, the Activity in the assay with Plasmodium yoelii [1] stood at 5; with Plasmodium yoelii [18] it was 0; with Plasmodium yoelii [2], 1; with Plasmodium yoelii [3], 5; in the assay on Plasmodium yoelii [4], 5; with Plasmodium yoelii [6], 5.

As for `CC(C)N1C(=O)C(=O)N=C1N/C(=N\C(=O)OC(C)(C)C)Nc1ccc(Cl)c(Cl)c1`, the Activity in the assay on Plasmodium yoelii [1] came to 2; in the assay on Plasmodium yoelii [3] it was 0; in the assay on Plasmodium yoelii [4], 5. The molecule further showed an inhibition in vivo at 1 mg/kg in the assay with Plasmodium yoelii [14] of 69%. This molecule also gave an inhibition in vivo at 10 mg/kg with Plasmodium yoelii [17] of 99%.

As to `CCOC(=O)/N=C(\NC1=NC(=O)C(=O)N1C(C)C)Nc1ccc(Cl)c(Cl)c1`, the Activity is 4 in the assay on Plasmodium yoelii [1], 0 with Plasmodium yoelii [2], 2 in the assay on Plasmodium yoelii [3] and 5 in the assay on Plasmodium yoelii [4]. In the assay on Plasmodium yoelii [14], this molecule yielded an inhibition in vivo at 1 mg/kg of 63%. In the assay on Plasmodium yoelii [17], testing at 10 mg/kg gave an inhibition in vivo of 99%.

With `COc1cc(C)c2c(Oc3cccc(C(F)(F)F)c3)c(OC)cc(NC(C)CCCN)c2n1` (centres undefined) [TAFENOQUINE], the Activity was 5 with Plasmodium yoelii [1]; “Toxicity death” in the assay on Plasmodium yoelii [19]; 3 with Plasmodium yoelii [2]; 5 with Plasmodium yoelii [3]; 5 in the assay with Plasmodium yoelii [6]. The molecule further returned an inhibition in vivo at 1 mg/kg in the assay with Plasmodium yoelii [14] of 39%. The same molecule displayed an inhibition in vivo at 10 mg/kg in the assay on Plasmodium yoelii [17] of 96%.

`O[C@@H](c1cc(C(F)(F)F)nc2c(C(F)(F)F)cccc12)C1CCCCN1` (some centres undefined) [MEFLOQUINE]: the IC90 in the assay on Plasmodium falciparum [10] stood at 0.044 µg/mL (≈ 0.116 µM); with Plasmodium falciparum [11] it was 0.0134 µg/mL (≈ 0.0355 µM); with Plasmodium falciparum [12], 0.00401 µg/mL (≈ 0.0106 µM).

On to `CC(C)/N=C(/NC(=O)OCc1ccccc1)NC1=NC(=O)C(=O)N1c1ccc(Cl)c(Cl)c1`, for which the Activity in the assay with Plasmodium yoelii [1] was 2; in the assay with Plasmodium yoelii [2], 0; in the assay with Plasmodium yoelii [3] it was 2; in the assay on Plasmodium yoelii [4] it was 3; in the assay on Plasmodium yoelii [6] it was 3. Also, in the assay on Plasmodium yoelii [14], at 1 mg/kg the inhibition in vivo was 6.7%. In the assay with Plasmodium yoelii [17], the inhibition in vivo at 10 mg/kg was found to be 87%.

Consider `C=CCCOC(=O)/N=C(\NC1=NC(=O)C(=O)N1C(C)C)Nc1ccc(Cl)c(Cl)c1`, for which the Activity with Plasmodium yoelii [1] is on record as 0; with Plasmodium yoelii [3] it was 0; in the assay with Plasmodium yoelii [4] it was 1.

For `CC(C)COC(=O)/N=C(\NC1=NC(=O)C(=O)N1C(C)C)Nc1ccc(Cl)c(Cl)c1`, the Activity with Plasmodium yoelii [1] is 2; in the assay on Plasmodium yoelii [3], 0; in the assay with Plasmodium yoelii [4] it was 5.

In the case of `CC(C)N1C(=O)C(=O)N=C1N/C(=N\C(=O)OCc1ccccc1)Nc1ccc(Cl)c(Cl)c1`, the Activity in the assay with Plasmodium yoelii [1] and in the assay on Plasmodium yoelii [4] was 0 throughout. This molecule had an inhibition in vivo at 1 mg/kg in the assay with Plasmodium yoelii [14] of 25%. For the same molecule, the inhibition in vivo at 10 mg/kg in the assay on Plasmodium yoelii [17] came to 43%.
